The results in this text go back to patent US7687664B2, “Carboxylic acid derivative, a salt thereof or an ester of them, and medicament comprising it” (Eisai R&D Management Co., Ltd., priority 2001, dated 2010).

Holding throughout (assay): Transcriptional activity, GAL4-PPAR LBD chimera / PLAP reporter in CV-1 cells
Holding throughout (format): cell-based

In one assay the target is T1, human PPAR α (Homo sapiens, UniProt Q07869).
T1 construct: human PPAR 167-468 (PPAR α); expressed in transfected cells; host or cells: CV-1 (ATCC CCL-70)
T1 sequence (Q07869 167-468): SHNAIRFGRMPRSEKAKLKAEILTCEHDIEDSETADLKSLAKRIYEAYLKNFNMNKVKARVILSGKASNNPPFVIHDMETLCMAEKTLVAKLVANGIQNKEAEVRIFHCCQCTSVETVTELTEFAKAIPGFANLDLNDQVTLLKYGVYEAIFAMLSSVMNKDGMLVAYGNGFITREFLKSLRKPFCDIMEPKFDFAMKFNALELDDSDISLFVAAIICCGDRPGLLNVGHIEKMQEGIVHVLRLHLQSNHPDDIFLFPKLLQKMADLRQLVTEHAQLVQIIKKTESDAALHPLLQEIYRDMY
To be noted: GAL4-PPARα LBD, PLAP activity 24 hours after addition. The source says:
(§1) A GAL4-PPAR LBD chimera expression vector was constructed by ligating human PPAR 167-468 (PPAR α), 138-440 (NUC-1) and 174-475 (PPARγ) amino acid regions (LBD: Ligand Binding Domain) to a yeast transcriptional factor GAL4 1-147 amino acid region. As the reporter gene, PLAP (Placental Alkaline Phosphatase) was used, and this was ligated downstream of a TK promoter containing a 5-copy GAL4 DNA binding element to construct a vector. As host cells, CV-1 (ATCC CCL-70) was used. That is, CV-1 cells were spread at a density of 5×10^5 cells on a 35-mm dish and cultured in 10% FCS/DMEM for 24 hours, and using FuGENE 6 transfection reagent, the cells were co-transfected with the GAL4-PPAR LBD expression vector and GAL4 DBD-TK-PLAP expression vector. 24 hours after this transfection, the cells were spread again on a 96-well plate at a density of 1×10^4/well and further cultured for 24 hours. After 24 hours, the medium was exchanged with DMEM containing 10% FCS, which was previously treated at 65° C. for inactivating intrinsic alkaline phosphatase, and a test compound was added at an arbitrary concentration. The transcriptional activity was determined in terms of PLAP activity secreted 24 hours after addition of the compound, to calculate EC50.
(§2) The PLAP activity was determined after adding 50 μl assay buffer and 50 μl chemoluminescence substrate to 10 μl culture supernatant and incubating the mixture at room temperature for 1 hour. In this way, transcription activities with respect to PPARα, PPARβ(δ) and PPARγ could be determined.

Assay [1] concerns the target T2, human PPAR β (NUC-1, PPARβ(δ)) (Homo sapiens, UniProt Q03181).
T2 construct: 138-440 (NUC-1); expressed in transfected cells; host or cells: CV-1 (ATCC CCL-70)
T2 sequence (Q03181 138-440): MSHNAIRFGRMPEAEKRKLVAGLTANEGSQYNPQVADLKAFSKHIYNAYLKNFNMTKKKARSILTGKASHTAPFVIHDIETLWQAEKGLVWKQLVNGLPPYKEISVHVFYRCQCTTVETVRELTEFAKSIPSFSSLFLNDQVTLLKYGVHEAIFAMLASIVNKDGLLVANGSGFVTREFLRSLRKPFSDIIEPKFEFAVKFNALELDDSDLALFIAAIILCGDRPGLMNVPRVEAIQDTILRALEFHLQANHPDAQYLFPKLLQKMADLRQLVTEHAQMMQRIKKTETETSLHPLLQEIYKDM
The following applies: GAL4-PPARβ(δ) (NUC-1) LBD, PLAP activity 24 hours after addition.
Excerpt: as §1, §2

The target of the next assay is T3, human PPAR γ (Homo sapiens, UniProt P37231).
T3 construct: 174-475 (PPARγ); expressed in transfected cells; host or cells: CV-1 (ATCC CCL-70)
T3 sequence (P37231 174-475 isoform P37231-2): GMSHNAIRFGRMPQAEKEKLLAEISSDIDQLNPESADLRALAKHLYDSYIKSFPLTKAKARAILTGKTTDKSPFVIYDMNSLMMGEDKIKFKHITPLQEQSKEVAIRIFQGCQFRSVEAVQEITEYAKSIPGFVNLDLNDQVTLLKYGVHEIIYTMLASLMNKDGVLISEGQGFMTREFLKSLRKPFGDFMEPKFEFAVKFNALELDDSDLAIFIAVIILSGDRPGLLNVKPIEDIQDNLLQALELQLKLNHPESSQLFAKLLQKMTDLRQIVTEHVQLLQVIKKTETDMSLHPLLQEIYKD
To be noted: GAL4-PPARγ LBD, PLAP activity 24 hours after addition.
Excerpt: as §1, §2

The term EC50 denotes the concentration at which the effect is half-maximal. As for `COc1ccc(-c2cccc(CC(=O)O)c2)cc1OCC(O)COc1ccc(C(C)(C)C)cc1` (stereo not shown) [Ex 365, {3′-[2-Hydroxy-3-(4-t-butylphenoxy)propoxy]-4′-methoxybiphenyl-3-yl}acetic Acid], the EC50 turned out to be 1560 nM at human PPAR α, 1140 nM in assay [1] and 150 nM at human PPAR γ.

Turning to `COc1ccc(-c2cccc(CC(=O)O)c2)cc1OCC#Cc1cccc(C(F)(F)F)c1` [Ex 375, {3′-[3-(3-Trifluoromethylphenyl)-2-propynyloxy]-4′-methoxybiphenyl-3-yl}acetic Acid], the results for the half-maximal effective concentration (EC50) (on human PPAR α; in assay [1]; at human PPAR γ) were 653 nM, 102 nM and 1280 nM, respectively.

For the molecule `COc1ccc(-c2ccc(C)c(C(=O)O)c2)cc1CNC(=O)c1ccc(Cl)cc1Cl` [Example 21, 3-(3-{[(2,4-Dichlorobenzoyl)amino]methyl}-4-methoxyphenyl)-6-methylbenzoic Acid], the results for the concentration giving a half-maximal response (EC50) (on human PPAR α; in assay [1]; at human PPAR γ) were 45 nM, 116 nM and 43 nM, respectively.

Take `CCCOc1ccc(C(=O)NCc2cc(-c3cccc(/C=C(\CC)C(=O)O)c3)ccc2OC)c(Cl)c1` [Example 141, (E)-2-Ethyl-3-[3-(3-{[(4-propoxy-2-chlorobenzoyl)amino]methyl}-4-methoxyphenyl)phenyl]-2-propenoic Acid]: the EC50 at human PPAR γ was found to be 31 nM.

In the case of `CCCOc1ccc(-c2cc(C(=O)O)ccc2Cl)cc1CNC(=O)c1ccc(C(F)(F)F)cc1F` [Example 199, 3-(3-{[(4-Trifluoromethyl-2-fluorobenzoyl)amino]methyl}-4-propoxyphenyl)-4-chlorobenzoic Acid], the EC50 on human PPAR α was 538 nM; in assay [1], 0.35 nM; at human PPAR γ it was 136 nM.

For the molecule `COc1ccc(-c2cccc(CC(=O)O)c2)cc1CNC(=O)c1ccc(C(F)(F)F)cc1F` [Example 220, 3-(3-{[(4-Trifluoromethyl-2-fluorobenzoyl)amino]methyl}-4-methoxyphenyl)-3-phenylacetic Acid], the EC50 at human PPAR α is 750 nM; in assay [1], 0.5 nM; at human PPAR γ it was 58 nM.

At human PPAR α, `Cc1ccc(-c2ccccc2CNC(=O)c2sc(-c3ccc(Cl)cc3)nc2C)cc1C(=O)O` [Example 257, 3-(2-[([2-(4-Chlorophenyl)-4-methyl-1,3-thiazol-5-yl]carbonylamino)methyl]phenyl)-6-methylbenzoic Acid] gave a concentration giving a half-maximal response (EC50) of 29 nM.

For the molecule `COc1ccc(-c2cccc(CC(=O)O)c2)cc1CCOc1ccc(Cl)cc1Cl` [Example 263, 3-{3-[2-(2,4-Dichlorophenoxy)ethyl]-4-methoxyphenyl}phenylacetic Acid], the concentration giving a half-maximal response (EC50) in assay [1] worked out at 0.48 nM; at human PPAR γ, 1160 nM.

For the molecule `COc1ccc(-c2cccc(CC(=O)O)c2)cc1CCOC(=O)Nc1ccc(C(F)(F)F)cc1` [Example 267, 2-[5-(3-{2-[(4-Trifluoromethylanilinocarbonyl)oxy]ethyl}-4-methoxyphenyl)-3-phenyl]acetic Acid], the concentration giving a half-maximal response (EC50) turned out to be 622 nM on human PPAR α, 18 nM in assay [1] and 468 nM at human PPAR γ.

`CCOc1ccc(-c2cccc(CC(=O)O)c2)cc1CNC(=O)OCc1ccc(CC)cc1` [Example 302, {4′-Ethoxy-3′-[(4-ethylbenzyloxycarbonylamino)methyl]-biphenyl-3-yl}acetic Acid]: the EC50 at human PPAR α is 3 nM; in assay [1] it was 74 nM; at human PPAR γ it was 700 nM.

Take `COc1ccc(-c2cccc(CC(=O)O)c2)cc1C#CCOc1ccc(C(F)(F)F)cc1` [Example 351, {4′-Methoxy-3′-[3-(4-trifluoromethylphenoxy)1-propynyl]biphenyl-3-yl}acetic Acid]: the EC50 at human PPAR α came to 1820 nM; in assay [1], 160 nM; at human PPAR γ, 1410 nM.

`COc1ccc(-c2cccc(CC(=O)O)c2)cc1/C(C)=N/OCc1ccc(C(F)(F)F)cc1` [Example 361, {4′-Methoxy-3′-[1-(4-trifluoromethylbenzyloxyimino)ethyl]-biphenyl-3-yl}acetic Acid]: the values for the EC50 (at human PPAR α; in assay [1]; on human PPAR γ) were 719 nM, below 0.1 nM and 654 nM, respectively.
